The results in this text go back to patent US20230174484A1, “ANTAGONISTS OF GPR39 PROTEIN” (Oregon Health & Science University, priority 2020, published 2023).

pKi: −log10 of the molar value. Structures can show the parent of a compound that is named as a salt.

The target of the experiment is T1, human GPR39 receptor (Homo sapiens, UniProt O43194).
T1 construct: PC3 Cells, Expressing the Endogenous Human GPR39 Receptor; endogenous in cells; host or cells: PC3 (human prostate adenocarcinoma) cells
T1 sequence (O43194 1-453): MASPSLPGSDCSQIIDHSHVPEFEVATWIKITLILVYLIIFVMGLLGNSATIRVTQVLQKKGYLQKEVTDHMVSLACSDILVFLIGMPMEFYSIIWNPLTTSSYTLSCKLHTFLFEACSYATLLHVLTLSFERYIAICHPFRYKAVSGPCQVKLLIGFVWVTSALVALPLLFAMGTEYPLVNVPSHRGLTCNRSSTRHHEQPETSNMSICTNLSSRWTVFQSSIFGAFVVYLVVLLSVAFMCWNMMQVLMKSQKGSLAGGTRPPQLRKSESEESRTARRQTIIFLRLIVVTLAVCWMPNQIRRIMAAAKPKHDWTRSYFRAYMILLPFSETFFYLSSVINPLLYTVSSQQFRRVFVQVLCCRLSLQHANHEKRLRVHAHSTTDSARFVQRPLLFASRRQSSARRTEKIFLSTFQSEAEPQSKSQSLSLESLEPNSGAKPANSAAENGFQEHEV
As to the kind of experiment: Measurement of intracellular calcium response in PC3 cells (FLIPR), antagonism of the C3 agonist response. It is filed as cell-based. As to conditions: functional pKi (modified Cheng-Prusoff), inhibition of the C3 (TC-G 1008) response at EC90, 30 μM ZnCl2, read-out: fpKi activity. Put shortly:
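Potency was reported as fpKi, converted by modified Cheng-Prusoff from four-parameter IC50 fits against an EC90 C3 agonist challenge. Calcium-6 FLIPR readings used PC3 cells naturally expressing human GPR39, in pH 7.4 HEPES buffer containing 30 μM final ZnCl2. Score bands: +/± <5.2, + 5.2–5.9, ++ 6.0–6.5, +++ 6.6–7.2, ++++ ≥7.3.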
(In general: Calcium flux is commonly read through the fluorescence of an indicator in the cells.)
In the case of `CCCN1CCN(C(=O)c2ccc(NC(=O)C3CC3)cc2N2CCC(C)CC2)CC1` [Example 15, N-(3-(4-methylpiperidin-1-yl)-4-(4-propylpiperazine-1-carbonyl)phenyl) cyclopropanecarboxamide], the pKi was 6.60 to 7.20.
Next, `CN1CCN(C(=O)c2ccc(NC(=O)C3CC3)cc2N2CCCCCC2)C(c2cccs2)C1` (single isomer, unassigned) [Example 69b, N-(3-(azepan-1-yl)-4-(4-methyl-2-(thiophen-2-yl)piperazine-1-carbonyl)phenyl) cyclopropane carboxamide]: at least 7.30.
For `O=C(Nc1ccc(C(=O)N2CCS(=O)(=O)CC2)c(-n2cc(C(F)(F)F)cn2)c1)C1CC1` [Example 182, N-[4-(1,1-dioxo-1,4-thiazinane-4-carbonyl)-3-[4-(trifluoromethyl)pyrazolyl]phenyl]cyclopropanecarboxamide] the value was 6.00 to 6.50; for `O=C(Nc1ccc(C(=O)N2CCS(=O)(=O)CC2)c(N2CCOC(C(F)(F)F)C2)c1)C1CC1` (racemic) [Example 186, N-[4-(1,1-dioxo-1,4-thiazinane-4-carbonyl)-3-[2-(trifluoromethyl)morpholinyl]phenyl]cyclopropanecarboxamide], 6.00 to 6.50; for `CCCN1CCN(C(=O)c2ncc(NC(=O)C3CC3)nc2N2CCCCCC2)CC1` [Example 106, N-[6-(azepan-1-yl)-5-(4-propylpiperazine-1-carbonyl)pyrazin-2-yl]Cyclopropanecarboxamide], 5.20 to 5.90.
Next, `O=C(Nc1ccc(C(=O)N2CCN(Cc3cccnc3)CC2)c(N2CCCCCC2)c1)C1CC1` [Example 32, N-(3-(azepan-1-yl)-4-(4-(pyridin-3-ylmethyl)piperazine-1-carbonyl)phenyl)cyclopropanecarboxamide]: 6.00 to 6.50; `Cc1noc(-c2ccc(C(=O)N3CCC(C(F)(F)F)CC3)c(N3CCCC3)c2)n1` [Example 152, [4-(3-methyl-1,2,4-oxadiazol-5-yl)-2-pyrrolidin-1-ylphenyl]-[4-(trifluoromethyl)piperidin-1-yl]methanone]: 6.00 to 6.50; `CCCN1CCN(C(=O)c2ccc(NC(=O)C3CC3)cc2-n2ccc(C)n2)CC1` [Example 8, N-(3-(3-methyl-1H-pyrazol-1-yl)-4-(4-propylpiperazine-1-carbonyl)phenyl)cyclopropanecarboxamide]: 6.60 to 7.20.
On to `CN1CCN(C(=O)c2ccc(NC(=O)C3CC3)cc2N2CCCC2)C(c2ccccc2F)C1` (racemic) [Example 84c, N-[4-[2-(2-fluorophenyl)-4-methylpiperazine-1-carbonyl]-3-pyrrolidin-1-ylphenyl]cyclopropanecarboxamide], for which the pKi was 6.60 to 7.20.
As to `CC1CCN(c2cc(NC(=O)C3CC3)ccc2C(=O)N2CCC(C(F)(F)F)CC2)C1` (single isomer, unassigned) [Example 63a, (N-[3-(3R or 3S-methylpyrrolidin-l-yl)-4-[4-(trifluoromethyl)piperidine-1-carbonyl]phenyl]cyclopropanecarboxamide], the pKi is at least 7.30.
Take `O=C(Nc1ccc(C(=O)N2CCC3(CC2)COC3)c(N2CCC(C(F)(F)F)C2)c1)C1CC1` (single isomer, unassigned) [Example 213a, N-[4-(2-oxa-7-azaspiro[3.5]nonane-7-carbonyl)-3-[3R or 3S-(trifluoromethyl)pyrrolidin-1yl]phenyl]cyclopropanecarboxamide]: the pKi was at least 7.30.
Next, `O=C(Nc1ccc(C(=O)N2CCC3(CC2)COC3)c(N2CCC(C(F)(F)F)C2)c1)C1CC1` (racemic) [Example 213c, N-[4-(2-oxa-7-azaspiro[3.5]nonane-7-carbonyl)-3-[3-(trifluoromethyl)pyrrolidin-1-yl]phenyl]cyclopropanecarboxamide]: 6.60 to 7.20; `CC1CC(C)CN(c2cc(NC(=O)C3CC3)ccc2C(=O)N2CCN(C)CC2c2ccccc2)C1` (single isomer, unassigned) [Example 68b, Syn 2R or 2S N-[3-[3,5-dimethylpiperidin-1-yl]-4-(4-methyl-2-phenylpiperazine-1-carbonyl)phenyl] cyclopropanecarboxamide]: 6.00 to 6.50.
Next, `O=C(Nc1ccc(C(=O)N2CCN(c3ccccn3)CC2)c(N2CCCCCC2)c1)C1CC1` [Example 46, N-(3-(azepan-1-yl)-4-(4-(pyridin-2-yl)piperazine-1-carbonyl)phenyl) Cyclopropanecarboxamide]: 6.00 to 6.50; `CN1CCN(C(=O)c2ccc(-c3nccn3C)cc2N2CCCC2)C(c2ccccc2)C1` (racemic) [Example 121, [4-(1-methylimidazol-2-yl)-2-pyrrolidin-1-ylphenyl]-(4-methyl-2-phenylpiperazin-1-yl)methanone]: 5.20 to 5.90; `CN1CCN(C(=O)c2ccc(NC(=O)C3CC3)cc2N2CCCC2)C(c2cncnc2)C1` (racemic) [Example 175, N-[4-(4-methyl-2-pyrimidin-5-ylpiperazine-1-carbonyl)-3-pyrrolidinylphenyl]cyclopropanecarboxamide]: 6.00 to 6.50.
Next, `CCCN1CCN(C(=O)c2ccc(NC(=O)C3CCC3)cc2N2CCCCCC2)CC1` [Example 90, N-(3-(azepan-1-yl)-4-(4-propylpiperazine-1-carbonyl)phenyl)cyclobutanecarboxamide]: 5.20 to 5.90; `CN1CCN(C(=O)c2ccc(NC(=O)C3CC3)cc2N2CCCCCC2)C(c2ccsc2)C1` (racemic) [Example 70c, N-(3-(azepan-1-yl)-4-(4-methyl-2-(thiophen-3-yl)piperazine-1-carbonyl)phenyl)cyclopropane carboxamide]: 6.60 to 7.20; `C[C@@H]1C[C@@H](C)CN(c2cc(NC(=O)C3CC3)ccc2-c2nnc(Sc3ccccc3)n2C)C1` (relative stereo) [Example 114a, N-[3-(3,5-dimethylpiperidin-1-yl)-4-(4-methyl-5-phenylsulfanyl-1,2,4-triazol-3-yl)phenyl]cyclopropanecarboxamide]: 6.60 to 7.20.
Take `Cc1ccn(-c2cc(NC(=O)C3CC3)ccc2C(=O)N2CCN(C)CC2c2ccccc2)n1` (racemic) [Example 155c, N-[4-(4-methyl-2-phenylpiperazine-1-carbonyl)-3-(3-methylpyrazol-1-yl)phenyl]cyclopropanecarboxamide]: the pKi was 6.00 to 6.50.
For `CN1CCN(C(=O)c2ccc(NC(=O)C3CC3)cc2N2CCCCCC2)C(CO)C1` (centres unmarked) [Example 77, N-[3-(azepan-1-yl)-4-[2-(hydroxymethyl)-4-methylpiperazine-1-carbonyl]phenyl]cyclopropanecarboxamide] the value was 5.20 to 5.90; for `O=C(Nc1ccc(C(=O)N2CCS(=O)(=O)CC2)c(-n2ccc(C(F)(F)F)n2)c1)C1CC1` [Example 181, N-[4-(1,1-dioxo-1,4-thiazinane-4-carbonyl)-3-[3-(trifluoromethyl)pyrazol-1-yl]phenyl]cyclopropanecarboxamide], at least 7.30.
For `O=C(Nc1ccc(C(=O)N2CCS(=O)(=O)CC2)c(N2CCC(C(F)(F)F)C2)c1)C1CC1` (racemic) [Example 183c, N-[4-(1,1-dioxo-1,4-thiazinane-4-carbonyl)-3-[3-(trifluoromethyl)pyrrolidin-1-yl]phenyl]cyclopropanecarboxamide] the value was 6.60 to 7.20; for `COc1cccc(CN2CCN(C(=O)c3ccc(NC(=O)C4CC4)cc3N3CCCCCC3)CC2)c1` [Example 25, N-(3-(azepan-1-yl)-4-(4-(3-methoxybenzyl)piperazine-1-carbonyl)phenyl) Cyclopropanecarboxamide], 6.00 to 6.50.
Next, `CCCN1CCN(C(=O)c2ccc(NC(=O)C3CC3)cc2N2CCC(F)(F)CC2)CC1` [Example 7, N-(3-(4,4-difluoropiperidin-1-yl)-4-(4-propylpiperazine-1-carbonyl)phenyl) cyclopropanecarboxamide]: 5.20 to 5.90.
`CC1CC(C)CN(c2cc(NC(=O)C3CC3)ccc2C(=O)N2CCN(C)CC2c2ccccc2)C1` (single isomer, unassigned) [Example 68f, Syn 2R or 2S N-[3-[3,5-dimethylpiperidin-1-yl]-4-(4-methyl-2-phenylpiperazine-1-carbonyl)phenyl]cyclopropanecarboxamide hydrochloride]: the pKi is at least 7.30.
Next, `C[C@@H]1C[C@H](C)CN(c2cc(NC(=O)C3CC3)ccc2-c2ncc3n2CCN(C)C3)C1` [Example 104b, N-[3-(3,5-dimethylpiperidin-1-yl)-4-(7-methyl-6,8-dihydro-5H-imidazo[1,5-a]pyrazin-3-yl)phenyl] cyclopropanecarboxamide]: 6.60 to 7.20; `O=C(Nc1ccc(C(=O)N2CCN(Cc3ccccc3)CC2)c(N2CCCCCC2)c1)C1CC1` [Example 50, N-(3-(azepan-1-yl)-4-(4-benzylpiperazine-1-carbonyl)phenyl)cyclopropanecarboxamide]: 6.60 to 7.20; `CN1CCN(C(=O)c2ccc(NC(=O)C3CC3)cc2-n2ccc(C(F)(F)F)n2)C(c2ccccc2)C1` (centres unmarked) [Example 206, N-[4-(4-methyl-2-phenylpiperazine-1-carbonyl)-3-[3-(trifluoromethyl)pyrazol-1-yl]phenyl]cyclopropanecarboxamide]: 6.60 to 7.20.
